Source: patent US11026991B2, “Compositions and methods of use thereof to promote muscle growth and function” (Worlds Greatest Ingredients, LP, priority 2018, dated 2021)

Key:
[1] = set-up: species or system human; settings: in vivo
Description: Another exemplary study was done on a subject. The subject reported to the laboratory after an eight hour fast. Following and eight hour fast, the subject was given a standardized meal plan for two days prior to testing. The subject had their resting heart rate, blood pressure, body mass, height, and body measured using DEXA. Additionally, a urine sample was taken for baseline assessment of clinical safety, amino acid retention, and hydration status. A venous blood sample (10 mL) was be collected from a forearm vein prior to the subject being administrated, in a double-blind fashion a single dose of either leucine (2-gram dose), dileucine (2-gram dose) or leucine (1 grams)+dileucine (1 grams). Subsequent venous blood samples were to be collected 30, 60, 90, 120 and 240 minutes after ingestion of their assigned composition. After blood samples were taken the subject was given 250 mL of cold water to ingest. A second urine sample was taken at 240 minutes after ingestion of the composition. The methodology is shown schematically in FIG. 12.
All blood samples were processed to allow for determination of amino acid concentrations. […]
Plasma essential amino acids (threonine, methionine, lysine, histidine, valine, tryptophan, leucine, phenylalanine, isoleucine) were analyzed by LC/MS/MS and plasma dileucine was analyzed by GC/MS.

muscle protein synthesis = experiment: Muscle protein synthesis from vastus lateralis biopsies (L-[ring-13C6]-phenylalanine incorporation); assay type: in vivo, human; settings: 180 minutes post challenge, 2 g, versus subjects receiving leucine
Description: Another exemplary study was done to measure muscle protein synthesis. Two subjects came to the laboratory after a seven hour, overnight fast. A baseline blood sample was taken. Then a primed (2.0 μmol·kg−1), continuous infusion (0.05 μmol·kg−1·min−1) of L-[ring-13C6]-phenylalanine and L-[15N]-phenylalanine was started in one catheter.
Isotopes (from Cambridge Isotopes Inc., Andover, Mass.) were dissolved in 0.9% saline, filtered through a 0.2-μm filter, and infused using a calibrated syringe pump (from Harvard Apparatus, Holliston, Mass.). After obtaining steady-state enrichment, the L-[15N]-phenylalanine tracer infusion was stopped at t=0.
Repeated muscle biopsy sampling was done throughout the infusion trial for the determination of muscle protein synthesis (based on L-[ring-13C6]-phenylalanine incorporation) before and after the ingestion of 2 g leucine or 2 g dileucine. Biopsies (˜100 mg wet weight) were obtained from the middle region of the vastus lateralis under anesthetic (Lidocaine HCl 1%) with a 5 mm Bergstrom needle custom-modified for manual suction. A schematic representation of the experimental protocol can be found in FIG. 15.

[2] = Case study: plasma amino acids after ingestion of 2 g di-leucine (Ce) or 2 g leucine (C4); settings: for increase in plasma lysine, times greater than the other condition: Ce over C4
Description: The subject came into the laboratory fasted prior to the testing days. […] On Day 1, they were randomized to consume 1 of the 2 conditions. Following, consumption of the fluid mixture (8 oz. water), plasma amino acids were measured at 30, 60, 90, and 120 minutes. A 72-hour washout took place followed by the 2nd condition following the same procedures.
The dosage used in this study was either 2 grams of di-leucine (condition Ce) or 2 grams of leucine (condition C4).

CC(C)C[C@H](NC(=O)[C@@H](N)CC(C)C)C(=O)O [Ce, L-Leucyl-L-leucine]
plasma dileucine levels [1]: measurable increases | myofibrillar FSR (muscle protein synthesis) (muscle protein synthesis): significantly increased | increases in total EAA concentration relative to baseline (range) ([2]; 30 and 60 mPost): 7.2% to 26.9% | increase in total EAA concentration, times greater than Condition C4 ([2]; 30 mPost): 4 × | increase in total plasma BCAAs, times greater than Condition C4 ([2]; 30 mPost): 2.9 × | Plasma Isoleucine Delta Change Relative to Baseline Values ([2]; 30 mPost ingestion of 2 g): -11.31 nmol/L | Plasma Isoleucine Percent Change Relative to Baseline Values ([2]; 30 mPost ingestion of 2 g): −16.0% | Plasma Lysine Delta Change Relative to Baseline Values ([2]; 30 mPost ingestion of 2 g): 39.97 nmol/L | Plasma Lysine Percent Change Relative to Baseline Values ([2]; 30 mPost ingestion of 2 g): 29.7% | Plasma Methionine Delta Change Relative to Baseline Values ([2]; 30 mPost ingestion of 2 g): 2.32 µM | Plasma Methionine Percent Change Relative to Baseline Values ([2]; 30 mPost ingestion of 2 g): 10.1% | Plasma Phenylalanine Delta Change Relative to Baseline Values ([2]; 30 mPost ingestion of 2 g): 3.55 nmol/L | Plasma Phenylalanine Percent Change Relative to Baseline Values ([2]; 30 mPost ingestion of 2 g): 6.0% | Plasma Threonine Delta Change Relative to Baseline Values ([2]; 30 mPost ingestion of 2 g): 7.09 µM | Plasma Tryptophan Delta Change Relative to Baseline Values ([2]; 30 mPost ingestion of 2 g): -0.83 nmol/L | Plasma Tryptophan Percent Change Relative to Baseline Values ([2]; 30 mPost ingestion of 2 g): −1.3% | Plasma Valine Delta Change Relative to Baseline Values ([2]; 30 mPost ingestion of 2 g): -13.31 nmol/L | Plasma Valine Percent Change Relative to Baseline Values ([2]; 30 mPost ingestion of 2 g): −3.6% | Total Plasma BCAA Delta Change Relative to Baseline Values ([2]; 30 mPost ingestion of 2 g): 213 µM | Total Plasma BCAA Percent Change Relative to Baseline Values ([2]; 30 mPost ingestion of 2 g): 35.7% | Total Plasma EAA Delta Change Relative to Baseline Values ([2]; 30 mPost ingestion of 2 g): 265.57 nmol/L | Total Plasma EAA Percent Change Relative to Baseline Values ([2]; 30 mPost ingestion of 2 g): 26.9% | increase in plasma lysine, times greater than the other condition ([2]; 30 mPost): 2.8 × | Plasma Isoleucine Delta Change Relative to Baseline Values ([2]; 60 mPost ingestion of 2 g): -14.21 nmol/L | Plasma Isoleucine Percent Change Relative to Baseline Values ([2]; 60 mPost ingestion of 2 g): −20.1% | Plasma Lysine Delta Change Relative to Baseline Values ([2]; 60 mPost ingestion of 2 g): 41.31 nmol/L | Plasma Lysine Percent Change Relative to Baseline Values ([2]; 60 mPost ingestion of 2 g): 30.7% | Plasma Methionine Delta Change Relative to Baseline Values ([2]; 60 mPost ingestion of 2 g): 1.01 µM | Plasma Methionine Percent Change Relative to Baseline Values ([2]; 60 mPost ingestion of 2 g): 4.4% | Plasma Phenylalanine Delta Change Relative to Baseline Values ([2]; 60 mPost ingestion of 2 g): 2.02 nmol/L | Plasma Phenylalanine Percent Change Relative to Baseline Values ([2]; 60 mPost ingestion of 2 g): 3.4% | Plasma Threonine Delta Change Relative to Baseline Values ([2]; 60 mPost ingestion of 2 g): 6.11 µM | Plasma Tryptophan Delta Change Relative to Baseline Values ([2]; 60 mPost ingestion of 2 g): -5.10 nmol/L | Plasma Tryptophan Percent Change Relative to Baseline Values ([2]; 60 mPost ingestion of 2 g): −7.9% | Plasma Valine Delta Change Relative to Baseline Values ([2]; 60 mPost ingestion of 2 g): -52.63 nmol/L | Plasma Valine Percent Change Relative to Baseline Values ([2]; 60 mPost ingestion of 2 g): −14.1% | Total Plasma BCAA Delta Change Relative to Baseline Values ([2]; 60 mPost ingestion of 2 g): 26 µM | Total Plasma BCAA Percent Change Relative to Baseline Values ([2]; 60 mPost ingestion of 2 g): 4.3% | Total Plasma EAA Delta Change Relative to Baseline Values ([2]; 60 mPost ingestion of 2 g): 71.33 nmol/L | Total Plasma EAA Percent Change Relative to Baseline Values ([2]; 60 mPost ingestion of 2 g): 7.2% | increase in plasma lysine, times greater than the other condition ([2]; 60 mPost): 5.7 × | Plasma Isoleucine Delta Change Relative to Baseline Values ([2]; 90 mPost ingestion of 2 g): -26.67 nmol/L | Plasma Isoleucine Percent Change Relative to Baseline Values ([2]; 90 mPost ingestion of 2 g): −37.7% | Plasma Lysine Delta Change Relative to Baseline Values ([2]; 90 mPost ingestion of 2 g): -25.31 nmol/L | Plasma Lysine Percent Change Relative to Baseline Values ([2]; 90 mPost ingestion of 2 g): −18.8% | Plasma Methionine Delta Change Relative to Baseline Values ([2]; 90 mPost ingestion of 2 g): -0.00173 µM | Plasma Methionine Percent Change Relative to Baseline Values ([2]; 90 mPost ingestion of 2 g): −7.5% | Plasma Phenylalanine Delta Change Relative to Baseline Values ([2]; 90 mPost ingestion of 2 g): -5.98 nmol/L | Plasma Phenylalanine Percent Change Relative to Baseline Values ([2]; 90 mPost ingestion of 2 g): −10.1% | Plasma Threonine Delta Change Relative to Baseline Values ([2]; 90 mPost ingestion of 2 g): -0.0034 µM | Plasma Threonine Percent Change Relative to Baseline Values ([2]; 90 mPost ingestion of 2 g): −3.2% | Plasma Tryptophan Delta Change Relative to Baseline Values ([2]; 90 mPost ingestion of 2 g): -6.60 nmol/L | Plasma Tryptophan Percent Change Relative to Baseline Values ([2]; 90 mPost ingestion of 2 g): −10.2% | Plasma Valine Delta Change Relative to Baseline Values ([2]; 90 mPost ingestion of 2 g): -79.42 nmol/L | Plasma Valine Percent Change Relative to Baseline Values ([2]; 90 mPost ingestion of 2 g): −21.3% | Total Plasma BCAA Delta Change Relative to Baseline Values ([2]; 90 mPost ingestion of 2 g): -0.07162 µM | Total Plasma BCAA Percent Change Relative to Baseline Values ([2]; 90 mPost ingestion of 2 g): −12.0% | Total Plasma EAA Delta Change Relative to Baseline Values ([2]; 90 mPost ingestion of 2 g): -114.65 nmol/L | Total Plasma EAA Percent Change Relative to Baseline Values ([2]; 90 mPost ingestion of 2 g): −11.6% | Plasma Isoleucine Delta Change Relative to Baseline Values ([2]; 120 mPost ingestion of 2 g): -24.37 nmol/L | Plasma Isoleucine Percent Change Relative to Baseline Values ([2]; 120 mPost ingestion of 2 g): −34.4% | Plasma Lysine Delta Change Relative to Baseline Values ([2]; 120 mPost ingestion of 2 g): 25.68 nmol/L | Plasma Lysine Percent Change Relative to Baseline Values ([2]; 120 mPost ingestion of 2 g): 19.1% | Plasma Methionine Delta Change Relative to Baseline Values ([2]; 120 mPost ingestion of 2 g): -0.00168 µM | Plasma Methionine Percent Change Relative to Baseline Values ([2]; 120 mPost ingestion of 2 g): −7.3% | Plasma Phenylalanine Delta Change Relative to Baseline Values ([2]; 120 mPost ingestion of 2 g): -1.89 nmol/L | Plasma Phenylalanine Percent Change Relative to Baseline Values ([2]; 120 mPost ingestion of 2 g): −3.2% | Plasma Threonine Delta Change Relative to Baseline Values ([2]; 120 mPost ingestion of 2 g): -0.00207 µM | Plasma Threonine Percent Change Relative to Baseline Values ([2]; 120 mPost ingestion of 2 g): −1.9% | Plasma Tryptophan Delta Change Relative to Baseline Values ([2]; 120 mPost ingestion of 2 g): -13.23 nmol/L | Plasma Tryptophan Percent Change Relative to Baseline Values ([2]; 120 mPost ingestion of 2 g): −20.5% | Plasma Valine Delta Change Relative to Baseline Values ([2]; 120 mPost ingestion of 2 g): -85.53 nmol/L | Plasma Valine Percent Change Relative to Baseline Values ([2]; 120 mPost ingestion of 2 g): −22.9% | Total Plasma BCAA Delta Change Relative to Baseline Values ([2]; 120 mPost ingestion of 2 g): -0.06614 µM | Total Plasma BCAA Percent Change Relative to Baseline Values ([2]; 120 mPost ingestion of 2 g): −11.1% | Total Plasma EAA Delta Change Relative to Baseline Values ([2]; 120 mPost ingestion of 2 g): -59.34 nmol/L | Total Plasma EAA Percent Change Relative to Baseline Values ([2]; 120 mPost ingestion of 2 g): −6.0%
